Source: patent US12533310B2, “Fragrance or flavor composition” (Takasago International Corporation, priority 2019, dated 2026)

How the values were obtained:
[1] = system: cells not engineered to express the olfactory receptors; test: Mock test of the luciferase reporter gene assay; assay type: cell-based, human
Procedure: (§1) Each human olfactory receptor gene expression vector (0.05 μg), RTP1S vector (0.01 μg), firefly luciferase vector pGL4.29 containing a cAMP response element promoter (Promega, 0.01 μg) and Renilla luciferase vector pGL4.74 containing a thymidine kinase promoter (Promega, 0.005 μg) were dissolved in 10 μL of Opti-MEMI (gibco) to give a gene solution (for one well). HEK293T cells were seeded in 100 μL volumes into 96-well plates (Biocoat, Corning) at a cell density reaching confluence after 24 hours, and the gene solutions were added to the respective wells to cause gene transfer into the cells by lipofection techniques in accordance with the usage of Lipofectamine 3000, followed by culture at 37° C. under a 5% carbon dioxide atmosphere for 24 hours.
(§2) After removal of the culture solutions, an odorous substance serving as an analyte, which had been prepared at a given concentration with CD293 (gibco) medium (supplemented with […] L-glutamine), was added in 50 μL volumes to stimulate the cells for 3 hours, followed by luciferase activity measurement in accordance with the usage of a Dual-Luciferase Reporter Assay System (Promega). The response intensity of each olfactory receptor polypeptide was expressed as a fold increase value, which was determined by dividing the luciferase activity generated upon stimulation with the odorous substance by the luciferase activity generated in a test system not containing the odorous substance.
(§3) The cells engineered to express human olfactory receptors OR2C1 and OR4Q3 were used to measure the response of these receptors to various concentrations of 1-octen-3-one by the luciferase reporter gene assay.

[2] = molecular target: T1, human olfactory receptor OR4Q3 (Homo sapiens, UniProt Q8NH05); test: Luciferase reporter gene assay, response of OR4Q3 to odorous substances; assay type: cell-based; settings: various concentrations; cells stimulated 3 hours; FIGS. 2, 4, 5, 6
T1 construct: N-terminal 20 amino acid residues of bovine rhodopsin (Rho tag); expressed in transfected cells; host or cells: HEK293T
T1 sequence (Q8NH05 1-313): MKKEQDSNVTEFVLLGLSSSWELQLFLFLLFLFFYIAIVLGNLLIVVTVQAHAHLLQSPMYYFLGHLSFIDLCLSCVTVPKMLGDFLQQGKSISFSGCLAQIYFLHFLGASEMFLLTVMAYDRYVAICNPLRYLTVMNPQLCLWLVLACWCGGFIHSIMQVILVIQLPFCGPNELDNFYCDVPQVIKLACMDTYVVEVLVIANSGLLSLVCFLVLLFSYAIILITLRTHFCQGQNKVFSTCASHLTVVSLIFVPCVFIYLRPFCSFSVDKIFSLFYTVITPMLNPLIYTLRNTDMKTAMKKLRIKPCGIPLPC
Procedure: (§4) Human olfactory receptor genes were obtained by PCR cloning with Human Genomic DNA: Female (Promega) on the basis of their sequence information registered in GenBank. Into pME18S vectors, the N-terminal 20 amino acid residues of bovine rhodopsin were integrated and the resulting human olfactory receptor genes were integrated respectively downstream thereof to obtain human olfactory receptor gene expression vectors.
as §1, §2, §3
According to the same procedure as shown in Example 1, the cells engineered to express human olfactory receptors OR2C1 and OR4Q3 were used to measure the response of these receptors to various concentrations of 1,5-octadien-3-one by the luciferase reporter gene assay.
According to the same procedure as shown in Example 1, the cells engineered to express human olfactory receptor OR4Q3 were used to measure the response of this receptor to various concentrations of 1-octen-3-ol by the luciferase reporter gene assay. […]

olfactory receptor OR2W1 = molecular target: T2, olfactory receptor OR2W1 (Homo sapiens, UniProt Q9Y3N9); settings: background art; cited from earlier work
T2 sequence (Q9Y3N9 1-320): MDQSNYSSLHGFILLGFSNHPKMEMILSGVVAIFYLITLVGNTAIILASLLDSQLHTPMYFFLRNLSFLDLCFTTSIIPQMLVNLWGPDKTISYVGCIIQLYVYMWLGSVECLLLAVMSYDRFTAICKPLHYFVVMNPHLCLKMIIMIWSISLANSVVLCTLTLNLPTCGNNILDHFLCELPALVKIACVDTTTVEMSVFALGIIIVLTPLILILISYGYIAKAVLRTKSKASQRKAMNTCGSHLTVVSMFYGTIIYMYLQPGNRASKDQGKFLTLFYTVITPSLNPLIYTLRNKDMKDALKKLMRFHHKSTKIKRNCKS

OR2C1 = molecular target: T3, OR2C1 (Homo sapiens, UniProt O95371); test: Suppressive effect of offensive odor-suppressing materials on the response of OR2C1; assay type: cell-based; settings: for suppressing the response of OR2C1: odorous substance not stated; for suppressive effect on the response of OR2C1 to 1-octen-3-one: mixed at various concentrations with 30 μM 1-octen-3-one, response without material set to 100, FIGS. 7 and 8; for suppressive effect on the response of OR2C1 to trans-2-nonenal: mixed at various concentrations with 60 μM trans-2-nonenal, FIGS. 9 and 10
T3 construct: N-terminal 20 amino acid residues of bovine rhodopsin (Rho tag); expressed in transfected cells; host or cells: HEK293T
T3 sequence (O95371 1-312): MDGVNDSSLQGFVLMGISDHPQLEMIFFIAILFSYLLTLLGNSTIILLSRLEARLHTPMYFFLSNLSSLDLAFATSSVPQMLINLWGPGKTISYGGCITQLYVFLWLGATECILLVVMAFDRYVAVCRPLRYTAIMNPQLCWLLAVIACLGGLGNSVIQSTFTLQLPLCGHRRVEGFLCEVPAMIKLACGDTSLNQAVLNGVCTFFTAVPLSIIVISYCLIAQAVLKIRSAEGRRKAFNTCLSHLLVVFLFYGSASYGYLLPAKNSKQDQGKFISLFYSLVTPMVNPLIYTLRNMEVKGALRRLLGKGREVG
Procedure: as §2
According to the same procedure as shown in Example 1, offensive odor-suppressing materials 2-methyl-4-(2,2,3-trimethylcyclopent-3-enyl)but-2-en-1-ol (also known as 2-methyl-4-(2,2,3-trimethyl-3-cyclopentenyl)-2-buten-1-ol) (Hindinol®) and 1-(2,2,6-trimethylcyclohexyl)hexan-3-ol (Dextramber®) were each mixed at various concentrations with 30 μM 1-octen-3-one, and the cells engineered to express OR2C1 were used to measure the response of this receptor to 1-octen-3-one. The ratio of the fold increase value obtained in the test using the offensive odor-suppressing materials was determined assuming that the fold increase value obtained in the test without mixing the offensive odor-suppressing materials was set to 100.
According to the same procedure as shown in Example 5, offensive odor-suppressing materials 2-methyl-4-(2,2,3-trimethylcyclopent-3-enyl)but-2-en-1-ol (Hindinol®) and 1-(2,2,6-trimethylcyclohexyl)hexan-3-ol (Dextramber®) were each mixed at various concentrations with 60 μM trans-2-nonenal, and the cells engineered to express OR2C1 were used to measure the response of this receptor to trans-2-nonenal.

[3] = Sensory testing of offensive odor intensity, single offensive odors (Example 7); design: species or system human; settings: for Offensive odor intensity 1,5-Octadien-3-ol: 1,5-octadien-3-ol diluted 100-fold with triethyl citrate; for Offensive odor intensity 1,5-Octadien-3-ol / Offensive odor intensity 1,5-Octadien-3-one / Offensive odor intensity 1-Octen-3-ol / Offensive odor intensity 1-Octen-3-one / Offensive odor intensity Trans-2-nonenal / Offensive odor intensity Trans-2-octenal: 10 μl, test substance 1 μl, odor alone set to 8, scale 0 to 10, mean of 10 panelists; for Offensive odor intensity 1,5-Octadien-3-one: 1,5-octadien-3-one diluted 1000-fold with triethyl citrate; for Offensive odor intensity 1-Octen-3-ol: 1-octen-3-ol diluted 100-fold with triethyl citrate; for Offensive odor intensity 1-Octen-3-one: 1-octen-3-one diluted 100-fold with triethyl citrate; for suppressive effect on offensive odors (each offensive odor of Example 7): summary in words for all six offensive odors; for Offensive odor intensity Trans-2-nonenal: trans-2-nonenal diluted 1000-fold with triethyl citrate; for Offensive odor intensity Trans-2-octenal: trans-2-octenal diluted 1000-fold with triethyl citrate
Excerpt: Test substances having inhibitory activity on receptor activity were confirmed for their ability to suppress offensive odors by sensory testing. As offensive odors, trans-2-nonenal diluted 1000-fold with triethyl citrate, trans-2-octenal diluted 1000-fold with triethyl citrate, 1-octen-3-one diluted 100-fold with triethyl citrate, 1,5-octadien-3-one diluted 1000-fold with triethyl citrate, 1-octen-3-ol diluted 100-fold with triethyl citrate, and 1,5-octadien-3-ol diluted 100-fold with triethyl citrate were each added dropwise separately in a volume of 10 μl and a test substance was added dropwise in a volume of 1 μl to a cotton ball, which was then enclosed in a plastic bottle (OZO-40, Takemoto Yohki Co., Ltd., Japan). Each bottle was allowed to stand for 1 hour at room temperature to fully volatilize odor molecules in the bottle. Sensory testing was made by 10 panelists assuming that the odor intensity was set to 8 for each offensive odor when added dropwise alone, whereby the offensive odor intensity when a test substance was mixed was evaluated between 0 and 10. The resulting numerical values were used to calculate their mean value.

[4] = Sensory testing of offensive odor intensity, model odors (Example 8); design: species or system human
Procedure: These fragrance compositions 1 to 48 were confirmed for their ability to suppress offensive odors by sensory testing. As offensive odors, the model age-related body odor, the model underarm odor and the model musty odor indicated in Tables 8 to 10 below were each diluted 100-fold and added dropwise separately in a volume of […] and fragrance compositions 1 to 48 were each added dropwise separately in a volume of 1 μl as a test substance to a cotton ball, which was then enclosed in a plastic bottle (OZO-40, Takemoto Yohki Co., Ltd., Japan). Each bottle was allowed to stand for 1 hour at room temperature to fully volatilize odor molecules in the bottle. Sensory testing was made by 10 panelists assuming that the odor intensity was set to 8 for each offensive odor when added dropwise alone, whereby the offensive odor intensity when a test substance was mixed was evaluated between 0 and 10. The resulting numerical values were used to calculate their mean value.

[5] = molecular target: T4, human olfactory receptor OR2C1 (Homo sapiens, UniProt O95371); test: Luciferase reporter gene assay, response of OR2C1 to odorous substances; assay type: cell-based; settings: various concentrations; cells stimulated 3 hours; FIGS. 1 and 3
T4 construct: N-terminal 20 amino acid residues of bovine rhodopsin (Rho tag); expressed in transfected cells; host or cells: HEK293T
T4 sequence (O95371 1-312): T3 sequence (O95371 1-312)
Excerpt: as §4, with “vectors. […]” for “vectors.”
as §2, with “substance. […]” for “substance.”

Compound | response in Mock test [1] | response of olfactory receptor OR4Q3 to the odorous substance (fold increase value) [2] | Offensive odor intensity 1,5-Octadien-3-ol [3] | Offensive odor intensity 1,5-Octadien-3-one [3] | Offensive odor intensity 1-Octen-3-ol [3] | Offensive odor intensity 1-Octen-3-one [3] | Offensive odor intensity Trans-2-nonenal [3] | Offensive odor intensity Trans-2-octenal [3] | other results
C=CC(O)CC=CCC (stereo not shown) [1,5-octadien-3-ol] | no response was observed in a Mock test | respond to 1,5-octadien-3-ol in a concentration-dependent manner |  |  |  |  |  |  | 
CCCCCC(=O)O [hexanoic acid] |  |  |  |  |  |  |  |  | response of olfactory receptor OR2W1 (olfactory receptor OR2W1): responds to hexanoic acid
O=C1CCCCCCCCCCCC(=O)OCCO1 [MUSK T, 1,4-dioxacycloheptadecane-5,17-dione] |  |  | 3.0 | 3.2 | 3.2 | 2.8 | 2.9 | 2.9 | suppressing the response of OR2C1 (OR2C1): suppressing the response of OR2C1; suppressive effect on offensive odors (each offensive odor of Example 7) [3]: found to suppress each offensive odor
O=C(OCc1ccccc1)c1ccccc1O [Benzyl salicylate, reference compound] |  |  | 6.5 | 7.8 | 7.0 | 7.5 | 7.9 | 7.5 | 
CC(=CCC1CC=C(C)C1(C)C)CO (stereo not shown) [Hindinol, 2-methyl-4-(2,2,3-trimethylcyclopent-3-enyl)but-2-en-1-ol] |  |  |  |  |  |  |  |  | suppressive effect on the response of OR2C1 to 1-octen-3-one (OR2C1): reducing the response of OR2C1 to 1-octen-3-one in a concentration-dependent manner; suppressive effect on the response of OR2C1 to trans-2-nonenal (OR2C1): reducing the response of OR2C1 to trans-2-nonenal in a concentration-dependent manner; Offensive odor intensity Model age-related body odor ([4]; model odor of Table 8 diluted 100-fold, fragrance composition 1 μl, odor alone set to 8, scale 0 to 10, mean of 10 panelists): suppress the intensity of the model age-related body odor and the model underarm odor; Offensive odor intensity Model underarm odor ([4]; model odor of Table 9 diluted 100-fold, fragrance composition 1 μl, odor alone set to 8, scale 0 to 10, mean of 10 panelists): suppress the intensity of the model age-related body odor and the model underarm odor
CCCC(O)CCC1C(C)CCCC1(C)C (stereo not shown) [Dextramber, 1-(2,2,6-trimethylcyclohexyl)hexan-3-ol] |  |  | 1.9 | 2.6 | 2.0 | 2.3 | 2.8 | 2.2 | suppressive effect on the response of OR2C1 to 1-octen-3-one (OR2C1): reducing the response of OR2C1 to 1-octen-3-one in a concentration-dependent manner; suppressive effect on the response of OR2C1 to trans-2-nonenal (OR2C1): reducing the response of OR2C1 to trans-2-nonenal in a concentration-dependent manner; suppressing the response of OR2C1 (OR2C1): suppressing the response of OR2C1; suppressive effect on offensive odors (each offensive odor of Example 7) [3]: found to suppress each offensive odor; suppressive effect on offensive odors (each model odor of Example 8) ([4]; summary in words for the model odors): found to suppress each offensive odor
C=CC(=O)CC=CCC [1,5-octadien-3-one] | no response was observed in a Mock test | respond to 1,5-octadien-3-one in a concentration-dependent manner |  |  |  |  |  |  | response of olfactory receptor OR2C1 to the odorous substance (fold increase value) [5]: respond to 1,5-octadien-3-one in a concentration-dependent manner
C=CC(=O)CCCCC [1-octen-3-one] | no response was observed in a Mock test | respond to 1-octen-3-one in a concentration-dependent manner |  |  |  |  |  |  | response of olfactory receptor OR2C1 to the odorous substance (fold increase value) [5]: respond to 1-octen-3-one in a concentration-dependent manner
C=CC(O)CCCCC (stereo not shown) [1-octen-3-ol] | no response was observed in a Mock test | respond to 1-octen-3-ol in a concentration-dependent manner |  |  |  |  |  |  | 
